Values of other authors, collected in patent EP4772943A1, “ALKALINE AQUEOUS SOLUTION FOR SEMICONDUCTOR, METHOD FOR USE AS LOW-TOXICITY ALKALINE AQUEOUS SOLUTION FOR SEMICONDUCTOR, AND METHOD FOR PRODUCING ALKALINE AQUEOUS SOLUTION FOR SEMICONDUCTOR” (priority 2023, dated 2025).

System: Daphnia sp.
Details: OECD TG202 Daphnia sp. acute immobilization test; converted to hydroxide of the quaternary ammonium ion as 100 mass%

In the case of `C[N+](C)(C)C.[OH-]` [TMAH, Tetramethylammonium hydroxide], the EC50 value is listed as 3 µg/mL.
